The target in assay [1] is hJAK2 (Homo sapiens (Human), UniProt O60674). The assay is described as follows: hJAK2 LANCE TR-FRET enzymatic assay. The format is biochemical. Particulars: read-out: JAK2 IC50.
Assay [2] addresses IKKε (Homo sapiens (Human), UniProt Q14164). Description: IKKε TR-FRET enzymatic assay. The format is biochemical. Particulars: read-out: IKKe IC50.
Assay [3] has as its target TBK1 (Homo sapiens (Human), UniProt Q9UHD2). The assay is described as follows: TBK1 TR-FRET enzymatic assay.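 Note: phosphorylation of a biotinylated Ser/Thr peptide by purified full-length recombinant TBK1, read by TR-FRET after 240 min at 25 °C, IC50 is the geometric mean of at least four runs.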
Setting [4] is: TR-FRET, 2×Km ATP, geometric mean of minimum four determinations.

The structures appear in SMILES notation. Where two headings read alike, the source gives them in different places.

Chain of hJAK2 (O60674 whole entry): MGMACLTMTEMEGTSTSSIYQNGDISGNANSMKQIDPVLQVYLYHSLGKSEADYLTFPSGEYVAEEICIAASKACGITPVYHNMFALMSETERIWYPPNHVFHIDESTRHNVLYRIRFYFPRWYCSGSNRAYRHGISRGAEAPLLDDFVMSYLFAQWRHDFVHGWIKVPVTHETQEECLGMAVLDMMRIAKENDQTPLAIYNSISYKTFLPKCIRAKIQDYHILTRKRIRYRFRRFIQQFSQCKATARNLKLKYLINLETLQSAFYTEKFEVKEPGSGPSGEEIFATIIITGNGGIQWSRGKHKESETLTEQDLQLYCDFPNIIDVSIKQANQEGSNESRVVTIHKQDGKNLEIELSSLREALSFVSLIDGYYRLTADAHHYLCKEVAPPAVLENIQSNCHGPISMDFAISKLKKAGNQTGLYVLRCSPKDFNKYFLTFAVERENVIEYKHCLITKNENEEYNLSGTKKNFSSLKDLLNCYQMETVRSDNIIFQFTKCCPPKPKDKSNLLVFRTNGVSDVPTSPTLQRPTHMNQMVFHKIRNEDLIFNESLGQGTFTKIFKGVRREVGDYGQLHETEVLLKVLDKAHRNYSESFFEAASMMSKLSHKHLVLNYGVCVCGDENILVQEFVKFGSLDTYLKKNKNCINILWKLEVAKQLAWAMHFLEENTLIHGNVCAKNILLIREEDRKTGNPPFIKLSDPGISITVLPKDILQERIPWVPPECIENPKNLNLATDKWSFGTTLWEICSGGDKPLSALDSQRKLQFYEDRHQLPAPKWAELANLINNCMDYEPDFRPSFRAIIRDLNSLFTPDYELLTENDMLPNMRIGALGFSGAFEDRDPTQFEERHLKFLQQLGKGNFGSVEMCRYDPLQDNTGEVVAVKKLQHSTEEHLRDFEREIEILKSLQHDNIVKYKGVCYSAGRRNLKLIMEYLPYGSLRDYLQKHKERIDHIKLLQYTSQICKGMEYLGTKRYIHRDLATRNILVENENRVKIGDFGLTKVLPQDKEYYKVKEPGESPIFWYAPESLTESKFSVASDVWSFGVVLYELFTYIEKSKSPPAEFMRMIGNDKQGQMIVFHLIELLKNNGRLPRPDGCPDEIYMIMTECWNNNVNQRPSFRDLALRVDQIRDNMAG
Chain of IKKε (Q14164 whole entry): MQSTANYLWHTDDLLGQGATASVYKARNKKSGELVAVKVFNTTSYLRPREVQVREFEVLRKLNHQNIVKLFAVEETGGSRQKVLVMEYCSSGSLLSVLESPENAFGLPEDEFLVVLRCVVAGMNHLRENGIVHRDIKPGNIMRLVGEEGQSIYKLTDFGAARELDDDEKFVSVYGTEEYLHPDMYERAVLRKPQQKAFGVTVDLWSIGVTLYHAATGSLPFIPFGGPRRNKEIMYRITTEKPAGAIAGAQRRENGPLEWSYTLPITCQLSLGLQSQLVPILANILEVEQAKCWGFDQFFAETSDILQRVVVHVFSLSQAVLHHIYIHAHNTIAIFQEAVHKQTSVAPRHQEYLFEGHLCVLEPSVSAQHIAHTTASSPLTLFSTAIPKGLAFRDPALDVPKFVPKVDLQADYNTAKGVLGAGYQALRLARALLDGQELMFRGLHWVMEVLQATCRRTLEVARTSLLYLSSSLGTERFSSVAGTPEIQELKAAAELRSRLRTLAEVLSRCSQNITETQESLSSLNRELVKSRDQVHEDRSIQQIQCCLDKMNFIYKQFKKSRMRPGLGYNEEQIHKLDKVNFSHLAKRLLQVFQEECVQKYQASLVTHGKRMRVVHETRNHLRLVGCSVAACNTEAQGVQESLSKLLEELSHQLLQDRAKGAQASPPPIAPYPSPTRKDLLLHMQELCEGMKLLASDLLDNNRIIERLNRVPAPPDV
Chain of TBK1 (Q9UHD2 whole entry): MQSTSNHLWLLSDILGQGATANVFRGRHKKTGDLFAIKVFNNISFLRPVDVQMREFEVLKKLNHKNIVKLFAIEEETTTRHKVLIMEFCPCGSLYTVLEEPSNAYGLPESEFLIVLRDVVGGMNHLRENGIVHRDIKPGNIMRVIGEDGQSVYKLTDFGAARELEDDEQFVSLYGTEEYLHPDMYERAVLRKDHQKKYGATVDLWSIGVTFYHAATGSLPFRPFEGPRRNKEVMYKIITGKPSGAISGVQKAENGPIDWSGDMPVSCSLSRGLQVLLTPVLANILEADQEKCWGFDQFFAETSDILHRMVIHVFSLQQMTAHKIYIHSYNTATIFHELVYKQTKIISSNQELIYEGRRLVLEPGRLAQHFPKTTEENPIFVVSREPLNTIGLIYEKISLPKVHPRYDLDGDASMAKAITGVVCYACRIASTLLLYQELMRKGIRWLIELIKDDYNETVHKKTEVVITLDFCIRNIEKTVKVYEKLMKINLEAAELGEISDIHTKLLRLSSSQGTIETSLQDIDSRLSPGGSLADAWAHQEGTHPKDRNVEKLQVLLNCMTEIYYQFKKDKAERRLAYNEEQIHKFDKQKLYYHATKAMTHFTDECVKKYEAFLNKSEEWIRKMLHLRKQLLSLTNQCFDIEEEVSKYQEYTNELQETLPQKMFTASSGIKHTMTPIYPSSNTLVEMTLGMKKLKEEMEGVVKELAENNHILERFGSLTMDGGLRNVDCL

Turning to `CCn1cc(Nc2ncnc(-c3ccc(O[C@H]4CCN(C(=O)CO)C[C@H]4F)c(C#N)c3)n2)c(C)n1` [Example 569, 5-(4-((1-ethyl-3-methyl-1H-pyrazol-4-yl)amino)-1,3,5-triazin-2-yl)-2-(((3R,4S)-3-fluoro-1-(2-hydroxyacetyl)piperidin-4-yl)oxy)benzonitrile], the values for the half-maximal inhibitory concentration (IC50) in assay [1], in assay [2] (setting [4]) and in assay [3] were at least 1000 nM, 6 nM and 4 nM, respectively.

As to `N#Cc1cc(-c2ncnc(Nc3cnn(CCO)c3)n2)ccc1O[C@H]1CCN(C(=O)CO)C[C@H]1F` [Example 506, 2-(((3R,4S)-3-fluoro-1-(2-hydroxyacetyl)piperidin-4-yl)oxy)-5-(4-((1-(2-hydroxyethyl)-1H-pyrazol-4-yl)amino)-1,3,5-triazin-2-yl)benzonitrile], the figures for the IC50 in assay [1], in assay [2] (setting [4]) and in assay [3] were 601 nM, 3 nM and 3 nM, respectively.

On to `CC1(C)CN(C(=O)CCO)C[C@@H](F)[C@H]1Oc1ccc(-c2ncnc(Nc3ccc(N4CCN(C5COC5)CC4)cc3)n2)cc1C#N` [Example 443, 2-(((4S,5R)-5-fluoro-1-(3-hydroxypropanoyl)-3,3-dimethylpiperidin-4-yl)oxy)-5-(4-((4-(4-(oxetan-3-yl)piperazin-1-yl)phenyl)amino)-1,3,5-triazin-2-yl)benzonitrile], for which the IC50 came to 102 nM in assay [1], 6 nM in assay [2] (setting [4]) and 3 nM in assay [3].

On to `C[C@H](O)C(=O)N1CC[C@H](Oc2ccc(-c3ncnc(Nc4ccc5c(c4)NCCO5)n3)cc2C#N)[C@H](F)C1` [Example 517, 5-(4-((3,4-dihydro-2H-benzo[b][1,4]oxazin-6-yl)amino)-1,3,5-triazin-2-yl)-2-(((3R,4S)-3-fluoro-1-((S)-2-hydroxypropanoyl)piperidin-4-yl)oxy)benzonitrile], for which the IC50 is 828 nM in assay [1], 1 nM in assay [2] (setting [4]) and 2 nM in assay [3].

For `N#CCC(=O)N1CC[C@H](Oc2ccc(-c3ncnc(Nc4ccc(N5CCN(C6COC6)CC5)cc4)n3)cc2C#N)[C@H](F)C1` [Example 138, 2-(((3R,4S)-1-(2-cyanoacetyl)-3-fluoropiperidin-4-yl)oxy)-5-(4-((4-(4-(oxetan-3-yl)piperazin-1-yl)phenyl)amino)-1,3,5-triazin-2-yl)benzonitrile], the IC50 in assay [1] is 146 nM; in assay [2] it was 2 nM; in assay [3], 2 nM.

For the compound `C[C@H]1CN(C2COC2)CCN1c1ccc(Nc2ncnc(-c3ccc(O[C@H]4CCN(C(=O)c5cnn[nH]5)C[C@H]4F)c(C#N)c3)n2)cc1` [Example 255, 2-(((3R,4S)-3-fluoro-1-(1H-1,2,3-triazole-5-carbonyl)piperidin-4-yl)oxy)-5-(4-((4-((S)-2-methyl-4-(oxetan-3-yl)piperazin-1-yl)phenyl)amino)-1,3,5-triazin-2-yl)benzonitrile], the IC50 in assay [1] stood at 227 nM; in assay [2] it was 2 nM; in assay [3], 4 nM.

For `N#Cc1cc(-c2ncnc(Nc3ccc(N4CCN(C5COC5)CC4)cc3)n2)ccc1O[C@H]1CCN(C(=O)[C@H]2CCCN2)C[C@H]1F` [Example 130, 2-(((3R,4S)-3-fluoro-1-((R)-pyrrolidine-2-carbonyl)piperidin-4-yl)oxy)-5-(4-((4-(4-(oxetan-3-yl)piperazin-1-yl)phenyl)amino)-1,3,5-triazin-2-yl)benzonitrile], the IC50 in assay [1] was at least 1000 nM; in assay [2], 73 nM; in assay [3], 29 nM.

For `N#Cc1cc(-c2ncnc(Nc3ccc(N4CCN(C5COC5)CC4)cc3)n2)ccc1OC1CNCC1(F)F` (stereo not drawn) [Example 194, 2-((4,4-difluoropyrrolidin-3-yl)oxy)-5-(4-((4-(4-(oxetan-3-yl)piperazin-1-yl)phenyl)amino)-1,3,5-triazin-2-yl)benzonitrile], the IC50 was 308 nM in assay [1], 29 nM in assay [2] and 6 nM in assay [3].

In the case of `C[C@H](O)CC(=O)N1CC[C@H](Oc2ccc(-c3ncnc(Nc4ccc(N5CCN(C6COC6)CC5)cc4)n3)cc2C#N)[C@H](F)C1` [Example 470, 2-(((3R,4S)-3-fluoro-1-((S)-3-hydroxybutanoyl)piperidin-4-yl)oxy)-5-(4-((4-(4-(oxetan-3-yl)piperazin-1-yl)phenyl)amino)-1,3,5-triazin-2-yl)benzonitrile], the figures for the 50% inhibitory concentration (IC50) in assay [1], in assay [2] (setting [4]) and in assay [3] were at least 1000 nM, 44 nM and 12 nM, respectively.

Consider `CC(C)n1cc(Nc2ncnc(-c3ccc(O[C@H]4CCN(C(=O)[C@@H](O)CO)C[C@H]4F)c(C#N)c3)n2)cn1` [Example 574, 2-(((3R,4S)-1-((S)-2,3-dihydroxypropanoyl)-3-fluoropiperidin-4-yl)oxy)-5-(4-((1-isopropyl-1H-pyrazol-4-yl)amino)-1,3,5-triazin-2-yl)benzonitrile], for which the IC50 amounted to 354 nM in assay [1], 2 nM in assay [2] (setting [4]) and 2 nM in assay [3].

With `CC(C)(O)c1cc(Nc2ncnc(-c3ccc(O[C@H]4CCN(C(=O)CO)C[C@H]4F)c(C#N)c3)n2)ccn1` [Example 397, 2-(((3R,4S)-3-fluoro-1-(2-hydroxyacetyl)piperidin-4-yl)oxy)-5-(4-((2-(2-hydroxypropan-2-yl)pyridin-4-yl)amino)-1,3,5-triazin-2-yl)benzonitrile], the IC50 came out at 960 nM in assay [1], 2 nM in assay [2] and 2 nM in assay [3].

For the compound `N#Cc1cc(-c2ncnc(Nc3ccc(N4CCN(C5COC5)CC4)cc3)n2)ccc1O[C@H]1CCC(=O)NC1` [Example 114, (S)-5-(4-((4-(4-(oxetan-3-yl)piperazin-1-yl)phenyl)amino)-1,3,5-triazin-2-yl)-2-((6-oxopiperidin-3-yl)oxy)benzonitrile], the IC50 in assay [1] came to 175 nM; in assay [2] it was 56 nM; in assay [3] it was 20 nM.

Regarding `C[C@H](O)C(=O)N1CC[C@H](Oc2ccc(-c3ncnc(Nc4ccc(C5CCOCC5)cc4)n3)cc2C#N)[C@H](F)C1` [Example 293, 2-(((3R,4S)-3-fluoro-1-((S)-2-hydroxypropanoyl)piperidin-4-yl)oxy)-5-(4-((4-(tetrahydro-2H-pyran-4-yl)phenyl)amino)-1,3,5-triazin-2-yl)benzonitrile], the IC50 was at least 1000 nM in assay [1], 2 nM in assay [2] and 3 nM in assay [3].

As for `Cc1cc(Nc2ncnc(-c3ccc(O[C@H]4CCN(C(=O)c5cn(C)nn5)C[C@H]4F)c(C#N)c3)n2)ccc1C1CCN(C)CC1` [Example 485, 2-(((3R,4S)-3-fluoro-1-(1-methyl-1H-1,2,3-triazole-4-carbonyl)piperidin-4-yl)oxy)-5-(4-((3-methyl-4-(1-methylpiperidin-4-yl)phenyl)amino)-1,3,5-triazin-2-yl)benzonitrile], the IC50 in assay [1] worked out at 576 nM; in assay [2] (setting [4]), 1 nM; in assay [3], 3 nM.

For the compound `N#CCC(=O)N1CC[C@@H](Oc2ccc(-c3ncnc(Nc4ccc(N5CCN(C6COC6)CC5)cc4)n3)cc2C#N)C1` [Example 90, (R)-2-((1-(2-cyanoacetyl)pyrrolidin-3-yl)oxy)-5-(4-((4-(4-(oxetan-3-yl)piperazin-1-yl)phenyl)amino)-1,3,5-triazin-2-yl)benzonitrile], the IC50 came out at 292 nM in assay [1], 37 nM in assay [2] and 7 nM in assay [3].

`Cc1cc(C(=O)N2CC[C@H](Oc3ccc(-c4ncnc(Nc5ccc(N6CCN(C7COC7)CC6)cc5)n4)cc3C#N)[C@H](F)C2)[nH]n1` [Example 321, 2-(((3R,4S)-3-fluoro-1-(3-methyl-1H-pyrazole-5-carbonyl)piperidin-4-yl)oxy)-5-(4-((4-(4-(oxetan-3-yl)piperazin-1-yl)phenyl)amino)-1,3,5-triazin-2-yl)benzonitrile]: the 50% inhibitory concentration (IC50) in assay [1] was determined as 164 nM; in assay [2], 2 nM; in assay [3], 3 nM.

For `N#Cc1cc(-c2ncnc(Nc3ccc(N4CCN(C5COC5)CC4)cc3)n2)ccc1O[C@H]1CCN(C(=O)[C@H]2CCCCN2)C[C@H]1F` [Example 129, 2-(((3R,4S)-3-fluoro-1-((R)-piperidine-2-carbonyl)piperidin-4-yl)oxy)-5-(4-((4-(4-(oxetan-3-yl)piperazin-1-yl)phenyl)amino)-1,3,5-triazin-2-yl)benzonitrile], the half-inhibitory concentration (IC50) in assay [1] is at least 1000 nM; in assay [2], 619 nM; in assay [3] it was 334 nM.

For the compound `N#CCC(=O)N1CC[C@H](Oc2c(F)cc(-c3ncnc(Nc4ccc(N5CCN(C6COC6)CC5)cc4)n3)cc2C#N)[C@H](F)C1` [Example 330, 2-(((3R,4S)-1-(2-cyanoacetyl)-3-fluoropiperidin-4-yl)oxy)-3-fluoro-5-(4-((4-(4-(oxetan-3-yl)piperazin-1-yl)phenyl)amino)-1,3,5-triazin-2-yl)benzonitrile], the IC50 in assay [1] turned out to be 941 nM; in assay [2] it was 6 nM; in assay [3], 4 nM.

Take `N#Cc1cc(-c2ncnc(Nc3ccc(N4CCN(C5COC5)CC4)cc3)n2)ccc1O[C@H]1CCN(C(=O)c2ccncc2N)C[C@H]1F` [Example 390, 2-(((3R,4S)-1-(3-aminoisonicotinoyl)-3-fluoropiperidin-4-yl)oxy)-5-(4-((4-(4-(oxetan-3-yl)piperazin-1-yl)phenyl)amino)-1,3,5-triazin-2-yl)benzonitrile]: the IC50 in assay [1] was found to be 37 nM; in assay [2] it was 165 nM; in assay [3], 65 nM.

Regarding `Cc1cc(Nc2ncnc(-c3ccc(O[C@H]4CCN(C(=O)[C@@H]5CCC(=O)N5)C[C@H]4F)c(C#N)c3)n2)ccc1N1CCN(C2COC2)CC1` [Example 536, 2-(((3R,4S)-3-fluoro-1-((S)-5-oxopyrrolidine-2-carbonyl)piperidin-4-yl)oxy)-5-(4-((3-methyl-4-(4-(oxetan-3-yl)piperazin-1-yl)phenyl)amino)-1,3,5-triazin-2-yl)benzonitrile], the values for the IC50 in assay [1], in assay [2] (setting [4]) and in assay [3] were 101 nM, 1 nM and 2 nM, respectively.

For the compound `N#Cc1cc(-c2ncnc(Nc3ccc(N4CCN(C5COC5)CC4)cc3)n2)ccc1O[C@@H]1CCNCC1(F)F` (single isomer, unassigned) [Example 150], the IC50 was 270 nM in assay [1], 14 nM in assay [2] and 2 nM in assay [3].

The values are drawn from patent publication US10040781B2, “Tank-binding kinase inhibitor compounds” (Gilead Sciences, Inc., priority 2014, dated 2018).
